Measured values: patent US4572895A, “Process for preparing an antibiotic complex by culturing actinomyces strain ATCC 39417” (priority 1985, dated 1986)
Converted amounts (≈) assume the structure as drawn. Where two headings read alike, the source gives them in different places.

Key:
[1] = tested on: Staphylococcus aureus 209P; experiment: MIC, serial two-fold agar dilution; format: cell-based; settings: nutrient agar
[2] = tested on: Staphylococcus aureus Smith; experiment: MIC, serial two-fold agar dilution; format: cell-based; settings: nutrient agar
[3] = tested on: Bacillus subtilis PCI 219; experiment: MIC, serial two-fold agar dilution; format: cell-based; settings: PCI219, nutrient agar
[4] = tested on: Micrococcus luteus PCI 1001; experiment: MIC, serial two-fold agar dilution; format: cell-based; settings: PCI1001, nutrient agar
[5] = tested on: Micrococcus flavus D12; experiment: MIC, serial two-fold agar dilution; format: cell-based; settings: nutrient agar
[6] = tested on: Escherichia coli NIHJ; experiment: MIC, serial two-fold agar dilution; format: cell-based; settings: nutrient agar
[7] = tested on: Klebsiella pneumoniae D11; experiment: MIC, serial two-fold agar dilution; format: cell-based; settings: nutrient agar
[8] = tested on: Pseudomonas aeruginosa D15; experiment: MIC, serial two-fold agar dilution; format: cell-based; settings: nutrient agar
[9] = tested on: Candida albicans IAM 4888; experiment: MIC, serial two-fold agar dilution; format: cell-based; settings: IAM4888, Sabouraud agar
[10] = tested on: Cryptococcus neoformans D49; experiment: MIC, serial two-fold agar dilution; format: cell-based; settings: Sabouraud agar
[11] = tested on: Aspergillus fumigatus IAM 2530; experiment: MIC, serial two-fold agar dilution; format: cell-based; settings: IAM2530, Sabouraud agar
[12] = tested on: Trichophyton mentagrophytes D155; experiment: MIC, serial two-fold agar dilution; format: cell-based; settings: Sabouraud agar
[13] = tested on: Clostridium difficile; experiment: MIC, serial two-fold agar dilution; format: cell-based; settings: Clostridioides difficile; GAM agar, anaerobe
[14] = tested on: gram-negative bacteria and fungi; experiment: antibacterial/antifungal activity (MIC), summary; format: cell-based
[15] = tested on: P388, L1210 and B16 tumors; experiment: antitumor activity in mice, summary over P388, L1210 and B16; format: in vivo, BDF1 mice; settings: experimental mouse tumors
[16] = solubility; format: physicochemical; settings: acidic water
[17] = tested on: aerobic gram-positive bacteria and anaerobic bacteria; experiment: antibacterial activity, summary; format: cell-based
Text: Nutrient agar medium was used for gram-positive and gram-negative bacteria, GAM agar medium for anaerobes and Sabouraud agar medium for fungi.

[18] = tested on: Bacteroides fragilis; experiment: MIC, serial two-fold agar dilution; format: cell-based; settings: GAM agar, anaerobe
[19] = tested on: Clostridium perfringens; experiment: microbe, parasite or virus in culture; format: cell-based
[20] = tested on: Propionibacterium acnes; experiment: MIC, serial two-fold agar dilution; format: cell-based; settings: Cutibacterium acnes; GAM agar, anaerobe
[21] = tested on: lymphocytic leukemia P388; settings: qd 1→9
[22] = tested on: lymphoid leukemia L1210; settings: qd 1→9
[23] = tested on: melanotic melanoma B16; settings: qd 1→9
[24] = tested on: melanotic melanoma B16; experiment: antitumor activity, B16 melanoma in mice; settings: qd 1→9
[25] = tested on: lymphocytic leukemia P388; experiment: antitumor activity, P388 leukemia in mice; settings: qd 1→9
[26] = tested on: lymphoid leukemia L1210; experiment: antitumor activity, L1210 leukemia in mice; settings: qd 1→9

Q: What does the source list for Cc1ccc2oc(=O)c3c(O)c4cccc(O[C@@H]5O[C@H](C)[C@H](O)[C@](C)(O)[C@H]5O)c4c4oc(=O)c1c2c34 [BBM-2478B]?
A: MIC [1]: 3.1 µg/mL (≈ 6.27 µM); MIC [2]: 6.3 µg/mL (≈ 12.7 µM); MIC [3]: 0.8 µg/mL (≈ 1.62 µM); MIC [4]: 3.1 µg/mL (≈ 6.27 µM); MIC [5]: 1.6 µg/mL (≈ 3.24 µM); MIC [6]: > 100 µg/mL; MIC [7]: > 100 µg/mL; MIC [8]: > 100 µg/mL; MIC [9]: > 100 µg/mL; MIC [10]: > 100 µg/mL; MIC [11]: > 100 µg/mL; MIC [12]: > 100 µg/mL; MIC [13]: 25 µg/mL (≈ 50.6 µM); activity against gram-negative bacteria and fungi [14]: inactive; antitumor activity [15]: devoid of antitumor activity; solubility in acidic water [16]: insoluble; antibacterial activity [17]: potent antibacterial activity

Q: For CO[C@H]1[C@@H](O)[C@@H](C)O[C@H](O[C@H]2[C@H](Oc3cccc4c(O)c5c(=O)oc6ccc(C)c7c(=O)oc(c34)c5c67)O[C@H](C)[C@H](O)[C@@H]2O)[C@@H]1O [Chartreusin, reference compound], which MIC [1] is on record?
A: 3.1 µg/mL (≈ 4.84 µM)

Q: What about the MIC [2] of the same compound?
A: 6.3 µg/mL (≈ 9.83 µM)

Q: What about the MIC [3] of the same compound?
A: 0.4 µg/mL (≈ 0.624 µM)

Q: What about the MIC [4] of the same compound?
A: 0.8 µg/mL (≈ 1.25 µM)

Q: What about the MIC [5] of the same compound?
A: 0.4 µg/mL (≈ 0.624 µM)

Q: What about the MIC [6] of the same compound?
A: > 100 µg/mL

Q: What about the MIC [7] of the same compound?
A: > 100 µg/mL

Q: What about the MIC [8] of the same compound?
A: > 100 µg/mL

Q: What about the MIC [9] of the same compound?
A: > 100 µg/mL

Q: And the MIC [10]?
A: > 100 µg/mL

Q: And the MIC [11]?
A: > 100 µg/mL

Q: What about the MIC [12] of the same compound?
A: > 100 µg/mL

Q: What about the MIC [18] of the same compound?
A: 6.3 µg/mL (≈ 9.83 µM)

Q: What about the MIC [19] of the same compound?
A: 1.6 µg/mL (≈ 2.5 µM)

Q: And the MIC [20]?
A: 3.1 µg/mL (≈ 4.84 µM)

Q: And the “activity against gram-negative bacteria and fungi” value [14]?
A: inactive

Q: What about the MST ([21]; 0.1 mg/kg/day ip) of the same compound?
A: 9.0 days

Q: And the MST ([21]; 0.3 mg/kg/day ip)?
A: 10.5 days

Q: What about the MST ([21]; 10 mg/kg/day ip) of the same compound?
A: 19.5 days

Q: What about the MST ([22]; 0.1 mg/kg/day ip) of the same compound?
A: 8.0 days

Q: What about the MST ([22]; 0.3 mg/kg/day ip) of the same compound?
A: 8.0 days

Q: And the MST ([22]; 1 mg/kg/day ip)?
A: 9.0 days

Q: And the MST ([22]; 3 mg/kg/day ip)?
A: 9.0 days

Q: What about the MST ([22]; 10 mg/kg/day ip) of the same compound?
A: 11.5 days

Q: What about the MST ([23]; 0.3 mg/kg/day ip) of the same compound?
A: 14.0 days

Q: And the MST ([23]; 1 mg/kg/day ip)?
A: 16.0 days

Q: What about the MST ([23]; 3 mg/kg/day ip) of the same compound?
A: 20.5 days

Q: And the MST ([23]; 10 mg/kg/day ip)?
A: 25.0 days

Q: What about the “Average wt. change on day 5” value ([24]; 0.3 mg/kg/day ip) of the same compound?
A: +1.8 g

Q: And the “Survivors on day 5” value ([24]; 0.3 mg/kg/day ip)?
A: 6/6

Q: What about the “Survivors on day 45” value ([24]; 0.3 mg/kg/day ip) of the same compound?
A: 0/6

Q: What about the T/C ([24]; 0.3 mg/kg/day ip) of the same compound?
A: 100%

Q: And the “Average wt. change on day 5” value ([24]; 1 mg/kg/day ip)?
A: +2.3 g

Q: What about the “Survivors on day 5” value ([24]; 1 mg/kg/day ip) of the same compound?
A: 6/6

Q: And the T/C ([24]; 1 mg/kg/day ip)?
A: 114%

Q: What about the “Average wt. change on day 5” value ([24]; 3 mg/kg/day ip) of the same compound?
A: +2.3 g

Q: What about the “Survivors on day 5” value ([24]; 3 mg/kg/day ip) of the same compound?
A: 6/6

Q: And the “Survivors on day 45” value ([24]; 3 mg/kg/day ip)?
A: 0/6

Q: And the “Average wt. change on day 5” value ([24]; 10 mg/kg/day ip)?
A: +1.7 g

Q: And the “Survivors on day 5” value ([24]; 10 mg/kg/day ip)?
A: 6/6

Q: And the “Survivors on day 45” value ([24]; 10 mg/kg/day ip)?
A: 0/6

Q: And the “Average wt. change on day 5” value ([25]; 0.1 mg/kg/day ip)?
A: +2.8 g

Q: And the “Survivors on day 5” value ([25]; 0.1 mg/kg/day ip)?
A: 6/6

Q: What about the “Survivors on day 45” value ([25]; 0.1 mg/kg/day ip) of the same compound?
A: 0/6

Q: And the T/C ([25]; 0.1 mg/kg/day ip)?
A: 100%

Q: And the “Average wt. change on day 5” value ([25]; 0.3 mg/kg/day ip)?
A: +2.0 g

Q: What about the “Survivors on day 5” value ([25]; 0.3 mg/kg/day ip) of the same compound?
A: 6/6

Q: And the “Survivors on day 45” value ([25]; 0.3 mg/kg/day ip)?
A: 0/6

Q: And the T/C ([25]; 0.3 mg/kg/day ip)?
A: 117%

Q: And the “Average wt. change on day 5” value ([25]; 1 mg/kg/day ip)?
A: +1.3 g

Q: And the MST ([25]; 1 mg/kg/day ip)?
A: 14.0 days

Q: What about the “Survivors on day 5” value ([25]; 1 mg/kg/day ip) of the same compound?
A: 6/6

Q: And the “Survivors on day 45” value ([25]; 1 mg/kg/day ip)?
A: 0/6

Q: And the “Average wt. change on day 5” value ([25]; 3 mg/kg/day ip)?
A: +1.5 g

Q: And the MST ([25]; 3 mg/kg/day ip)?
A: 15.0 days

Q: What about the “Survivors on day 5” value ([25]; 3 mg/kg/day ip) of the same compound?
A: 6/6

Q: What about the “Survivors on day 45” value ([25]; 3 mg/kg/day ip) of the same compound?
A: 0/6

Q: And the “Average wt. change on day 5” value ([25]; 10 mg/kg/day ip)?
A: +1.3 g

Q: And the “Survivors on day 5” value ([25]; 10 mg/kg/day ip)?
A: 6/6

Q: And the “Survivors on day 45” value ([25]; 10 mg/kg/day ip)?
A: 0/6

Q: And the “Average wt. change on day 5” value ([26]; 0.1 mg/kg/day ip)?
A: +3.1 g

Q: And the “Survivors on day 5” value ([26]; 0.1 mg/kg/day ip)?
A: 6/6

Q: What about the “Survivors on day 45” value ([26]; 0.1 mg/kg/day ip) of the same compound?
A: 0/6

Q: What about the T/C ([26]; 0.1 mg/kg/day ip) of the same compound?
A: 100%

Q: And the “Average wt. change on day 5” value ([26]; 0.3 mg/kg/day ip)?
A: +3.2 g

Q: What about the “Survivors on day 5” value ([26]; 0.3 mg/kg/day ip) of the same compound?
A: 6/6

Q: What about the “Survivors on day 45” value ([26]; 0.3 mg/kg/day ip) of the same compound?
A: 0/6

Q: And the T/C ([26]; 0.3 mg/kg/day ip)?
A: 100%

Q: And the “Average wt. change on day 5” value ([26]; 1 mg/kg/day ip)?
A: +1.9 g

Q: What about the “Survivors on day 5” value ([26]; 1 mg/kg/day ip) of the same compound?
A: 6/6

Q: What about the “Survivors on day 45” value ([26]; 1 mg/kg/day ip) of the same compound?
A: 0/6

Q: And the T/C ([26]; 1 mg/kg/day ip)?
A: 113%

Q: And the “Average wt. change on day 5” value ([26]; 3 mg/kg/day ip)?
A: +1.4 g

Q: And the “Survivors on day 5” value ([26]; 3 mg/kg/day ip)?
A: 6/6

Q: And the “Survivors on day 45” value ([26]; 3 mg/kg/day ip)?
A: 0/6

Q: What about the T/C ([26]; 3 mg/kg/day ip) of the same compound?
A: 113%

Q: What about the “Average wt. change on day 5” value ([26]; 10 mg/kg/day ip) of the same compound?
A: +1.3 g

Q: What about the “Survivors on day 5” value ([26]; 10 mg/kg/day ip) of the same compound?
A: 6/6

Q: What about the “Survivors on day 45” value ([26]; 10 mg/kg/day ip) of the same compound?
A: 0/6
